Patent publication US20240285625A1, “ERK1/2 AND KRAS G12C INHIBITORS COMBINATION THERAPY” (Erasca, Inc., priority 2021, published 2024)

Test: Body weight loss in the CO-04-0310 PDX study
Type: in vivo, Balb/c nude mice
Conditions: CO-04-0310 study; Compound 1 30 mg/kg/dose BID monotherapy; DietGel starting on treatment day 14
Protocol: Treatment started on the day after randomization. The treatment start day was denoted as treatment day 1. Mice were dosed by oral administration of vehicle control solution or monotherapy treatments of Compound 1 at 30 mg/kg/dose BID or sotorasib at 100 mg/kg QD. An additional group received combination treatment of Compound 1 at 30 mg/kg/dose BID or sotorasib at 100 mg/kg QD. BID was dosed at an 8-hour interval. In the combination group, sotorasib was dosed first and Compound 1 was dosed one hour later. In addition to regular food and water supply. DietGel (Ready Jelly R. 76A. Ready Biotechnology (ShenZhen) Co., Ltd.) was added in cages where at least two mice in a treatment group started showing >10% BWL at any measurement day. DietGel was supplied through the remaining study period after the addition of DietGel. Per this practice, mice in the Compound 1 at 30 mg/kg/dose BID monotherapy treatment group were supplied with DictGel food starting on treatment day 14. The study was terminated on treatment day 28 as defined in the study protocol.

Question: For `Cc1cnc(NC2CCOCC2)nc1-n1cnc(C(=O)N[C@H](CN)c2cc(F)cc(Cl)c2)c1` [Compound 1, (S)—N-(2-amino-1-(3-chloro-5-fluorophenyl)ethyl)-1-(5-methyl-2-((tetrahydro-2H-pyran-4-yl)amino)pyrimidin-4-yl)-1H-imidazole-4-carboxamide], which “BWL (at least two mice in treatment group; DietGel supplied)” value is on record?
Answer: The value was > 10%.
